Laboratory results: US9447028B2, “Therapeutic aryl-amido-aryl compounds and their use” (King's College London, priority 2009, dated 2016)

Assays:
Assay type in all cases: cell-based
[1] = target: T1, RARα (Homo sapiens, UniProt P10276); assay: Transactivation assay for RAR alpha (gal4-RAR fusion, luciferase reporter, COS-7 cells); conditions: for RARα/RARβ ratio (*): fold-selectivity for RARα over RARβ; for RARα activity ratio: ratio of test compound EC50 to that of atRA on the same plate
T1 construct: gal4 (fusion partner); expressed in transfected cells; host or cells: COS-7
T1 sequence (P10276 183-417 limits assumed): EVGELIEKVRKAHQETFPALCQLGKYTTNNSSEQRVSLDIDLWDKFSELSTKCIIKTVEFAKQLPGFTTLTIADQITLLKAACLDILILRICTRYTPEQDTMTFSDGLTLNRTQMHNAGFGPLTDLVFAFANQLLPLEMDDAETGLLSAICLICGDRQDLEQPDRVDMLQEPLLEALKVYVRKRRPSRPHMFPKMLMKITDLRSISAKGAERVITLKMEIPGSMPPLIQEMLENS
In short: (§1)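 COS-7 cells co-transfected with gal4–RAR ligand-binding-domain fusion and pFR-luc reporter, then treated with compound in phenol-red-free DMEM (1% DMSO) for about one day. Luciferase read after lysis with BrightGlo; EC50 values from replicate experiments given as a ratio of means.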

[2] = target: T2, RARβ (Homo sapiens, UniProt P10826); assay: Transactivation assay for RAR beta (gal4-RAR fusion, luciferase reporter, COS-7 cells); conditions: ratio of test compound EC50 to that of atRA; inactive = no agonist action at the highest concentration tested
T2 construct: gal4 (fusion partner); expressed in transfected cells; host or cells: COS-7
T2 sequence (P10826 183-417 limits assumed): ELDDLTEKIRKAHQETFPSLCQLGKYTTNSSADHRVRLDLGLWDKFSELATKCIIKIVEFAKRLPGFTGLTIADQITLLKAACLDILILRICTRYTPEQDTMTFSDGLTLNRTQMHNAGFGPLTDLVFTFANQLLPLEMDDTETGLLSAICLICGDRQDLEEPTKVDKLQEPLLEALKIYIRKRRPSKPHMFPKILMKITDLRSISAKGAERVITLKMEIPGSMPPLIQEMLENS
In short: as §1

[3] = target: T3, RARγ (Homo sapiens, UniProt P13631); assay: Transactivation assay for RAR gamma (gal4-RAR fusion, luciferase reporter, COS-7 cells); conditions: ratio of test compound EC50 to that of atRA; inactive = no agonist action at the highest concentration tested
T3 construct: gal4 (fusion partner); expressed in transfected cells; host or cells: COS-7
T3 sequence (P13631 185-419 limits assumed): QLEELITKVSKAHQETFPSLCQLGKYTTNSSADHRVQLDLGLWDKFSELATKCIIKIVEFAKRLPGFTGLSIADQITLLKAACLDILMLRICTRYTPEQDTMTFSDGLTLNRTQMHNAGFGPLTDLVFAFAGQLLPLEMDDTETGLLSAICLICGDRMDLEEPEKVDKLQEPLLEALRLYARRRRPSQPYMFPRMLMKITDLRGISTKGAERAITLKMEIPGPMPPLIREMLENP
In short: as §1

Row | Structure (SMILES) | RARα/RARβ ratio (*) [1] | RARα activity ratio [1] | RARβ activity ratio [2] | RARγ activity ratio [3]
1 | CCOc1c(Br)cc(C(=O)Nc2ccc(C(=O)O)c(C)c2)cc1C(F)(F)F [AAA-071, 4-(3-Bromo-4-ethoxy-5-(trifluoromethyl)benzamido)-2-methylbenzoic acid] | 31 | 5.2 | 160 | 13333
2 | CCOc1c(F)cc(C(=O)Nc2ccc(C(=O)O)cc2)cc1F [AAA-073, 4-(4-Ethoxy-3,5-difluorobenzamido)benzoic acid] | 6 | 19 | 117 | 220
3 | Cc1cc(NC(=O)c2cc(F)c(OC(C)C)c(Cl)c2)ccc1C(=O)O [AAA-074, 4-(3-Chloro-5-fluoro-4-isopropoxybenzamido)-2-methylbenzoic acid] | 210 | 154 | 32400 | 14500
4 | COc1c(Cl)cc(C(=O)Nc2ccc(C(=O)O)c(C)c2)cc1OC(C)C [AAA-075, 4-(3-Chloro-5-isopropoxy-4-methoxybenzamido)-2-methylbenzoic acid] | 241 | 4.7 | 1134 | 2394
5 | COc1c(Cl)cc(C(=O)Nc2ccc(C(=O)O)c(F)c2)cc1OC(C)C [AAA-077, 4-(3-Chloro-5-isopropoxy-4-methoxybenzamido)-2-fluorobenzoic acid] | 609 | 6.7 | 4082 | 117857
6 | CCOc1c(Cl)cc(C(=O)Nc2ccc(C(=O)O)c(F)c2)cc1OC(C)C [AAA-079, 4-(3-Chloro-4-ethoxy-5-isopropoxybenzamido)-2-fluorobenzoic acid] | 487 | 1.1 | 536 | 6786
7 | CCOc1c(Cl)cc(C(=O)Nc2ccc(C(=O)O)c(C)c2)cc1OC(C)C [AAA-080, 4-(3-Chloro-4-ethoxy-5-isopropoxybenzamido)-2-methylbenzoic acid] | – | 1.6 | 318 | 17460
8 | CCOc1c(Cl)cc(C(=O)Nc2ccc(C(=O)O)c(O)c2)cc1OC(C)C [AAA-081, 4-(3-Chloro-4-ethoxy-5-isopropoxybenzamido)-2-hydroxybenzoic acid] | 161 | 9.0 | 1453 | >27000
9 | CCOc1c(Cl)cc(C(=O)Nc2ccc(C(=O)O)nn2)cc1OC(C)C [AAA-082, 6-(3-Chloro-4-ethoxy-5-isopropoxybenzamido)pyridazine-3-carboxylic acid] | 275 | 25 | 6885 | >56000
10 | COc1cc(C(=O)Nc2ccc(C(=O)O)cc2)cc(Cl)c1OC(C)C [AAA-083, 4-(3-Chloro-4-isopropoxy-5-methoxybenzamido)benzoic acid] | 10 | 9 | 90 | 4390
11 | CCOc1c(Cl)cc(C(=O)Nc2ccc(C(=O)O)cc2)cc1OC [AAA-084, 4-(3-Chloro-4-ethoxy-5-methoxybenzamido)benzoic acid] | 234 | 26 | 6087 | >1400
12 | CCOc1c(Cl)cc(C(=O)Nc2ccc(C(=O)O)c(C)c2)cc1OC [AAA-085, 4-(3-Chloro-4-ethoxy-5-methoxybenzamido)-2-methylbenzoic acid] | 210 | 33 | 6923 | >8300
13 | CCOc1cc(C(=O)Nc2ccc(C(=O)O)cc2)cc(Cl)c1OC(C)C [AAA-086, 4-(3-Chloro-5-ethoxy-4-isopropoxybenzamido)benzoic acid] | 3.1 | 2.1 | 7 | 1203
14 | CCOc1cc(C(=O)Nc2ccc(C(=O)O)c(C)c2)cc(Cl)c1OC(C)C [AAA-087, 4-(3-Chloro-5-ethoxy-4-isopropoxybenzamido)-2-methylbenzoic acid] | 286 | 7 | 2000 | 11725
15 | CCOc1c(Cl)cc(C(=O)Nc2ccc(C(=O)O)cc2)cc1OCC1CC1 [AAA-089, 4-(3-Chloro-5-(cyclopropylmethoxy)-4-ethoxybenzamido)benzoic acid] | 392 | 1.3 | 510 | 2647
16 | CCOc1c(Cl)cc(C(=O)Nc2ccc(C(=O)O)c(O)c2)cc1OCC1CC1 [AAA-090, 4-(3-Chloro-5-(cyclopropylmethoxy)-4-ethoxybenzamido)-2-hydroxybenzoic acid] | 250 | 5.0 | 1250 | 367000
17 | CC(C)Oc1cc(C(=O)Nc2ccc(C(=O)O)c(O)c2)cc(Cl)c1OC(C)C [AAA-091, 4-(3-Chloro-4,5-diisopropoxybenzamido)-2-hydroxybenzoic acid] | 135 | 1.6 | 216 | 75000
18 | O=C(O)c1ccc(NC(=O)c2cc(Cl)c(OC3CCC3)c(OC3CCC3)c2)cc1 [AAA-092, 4-(3-Chloro-4,5-di(cyclobutyloxy)benzamido)benzoic acid] | 27 | 2 | 53 | 1059
19 | Cc1cc(NC(=O)c2cc(Cl)c(OC3CCC3)c(OC3CCC3)c2)ccc1C(=O)O [AAA-093, 4-(3-Chloro-4,5-di(cyclobutyloxy)benzamido)-2-methylbenzoic acid] | 46 | 2.0 | 92 | 10833
20 | O=C(Nc1ccc(C(=O)O)c(O)c1)c1cc(Cl)c(OC2CCC2)c(OC2CCC2)c1 [AAA-094, 4-(3-Chloro-4,5-di(cyclobutyloxy)benzamido)-2-hydroxybenzoic acid] | 2852 | 0.23 | 656 | 20000
21 | CC(C)Oc1cc(C(=O)Nc2ccc(C(=O)O)c(F)c2)cc(Cl)c1OC(C)C [AAA-095, 4-(3-Chloro-4,5-diisopropoxybenzamido)-2-fluorobenzoic acid] | 34 | 2.7 | 92 | 812
22 | CCOc1c(Cl)cc(C(=O)Nc2ccc(C(=O)O)c(C)c2)cc1OC1CCC1 [AAA-096, 4-(3-Chloro-5-(cyclobutoxy)-4-ethoxybenzamido)-2-methylbenzoic acid] | 67 | 3.2 | 215 | 7895
23 | CCOc1c(Cl)cc(C(=O)Nc2ccc(C(=O)O)c(C)c2)cc1OCC1CC1 [AAA-097, 4-(3-Chloro-5-(cyclopropylmethoxy)-4-ethoxybenzamido)-2-methylbenzoic acid] | 58 | 2.6 | 151 | 100000
24 | COc1c(Cl)cc(C(=O)Nc2ccc(C(=O)O)cc2)cc1OC1CCC1 [AAA-098, 4-(3-Chloro-5-cyclobutoxy-4-methoxybenzamido)benzoic acid] | 36 | 12 | 433 | 2955
25 | COc1c(Cl)cc(C(=O)Nc2ccc(C(=O)O)c(C)c2)cc1OC1CCC1 [AAA-099, 4-(3-Chloro-5-cyclobutoxy-4-methoxybenzamido)-2-methylbenzoic acid] | 59 | 11 | 655 | 89
26 | COc1c(Cl)cc(C(=O)Nc2ccc(C(=O)O)c(F)c2)cc1OC1CCC1 [AAA-100, 4-(3-Chloro-5-cyclobutoxy-4-methoxybenzamido)-2-fluorobenzoic acid] | 99 | 33 | 3273 | 11818
27 | CCC(CC)Oc1cc(C(=O)Nc2ccc(C(=O)O)cc2)cc(Cl)c1OC [AAA-101, 4-(3-Chloro-4-methoxy-5-(pentan-3-yloxy)benzamido)benzoic acid] | 23 | 1.7 | 39 | 375
